Measurements reported in US10889575B2, “4,4-diphenylpiperidine compounds or pharmaceutically acceptable salts thereof, pharmaceutical compositions and uses thereof” (Academy of Military Medical Sciences, priority 2017, dated 2021).
Where “and” joins values, the source holds several entries; their conditions need not be identical. Identical values can stand only once. Counter-ions that a name gives are not always drawn. Like-named read-outs stand apart in the source and are kept apart here.

Experiments:
[1] = test system: N-type calcium ion channel (α1B/β1b/α2δ); assay: N-type calcium ion channel current suppression, two-electrode voltage clamp in Xenopus oocytes; assay type: cell-based; details: 10 μM
Protocol: To determine the current suppressing effects of Compound (4) hydrochloride and Compounds (1), (2), (3), (5) of the present invention on N-type calcium ion channel (α1B/β1b/α2δ) transiently expressed in Xenopus oocytes.
Plasmids α1B, α2δ, β1b were injected into Xenopus oocytes in concentration ratio of 1:1:1, and the total volume of the three plasmids injected into per cell was about 46 nL. The injected cells were placed in ND-96 medium at 18° C. for 48 hours, then the expressed current was recorded.
Perfusion administration method was adopted with a flow rate of 3 mL/min and a test drug concentration of 10 μM. Using two-electrode voltage clamp technique, the cell was clamped at −100 mV, stepped at 10 mV, depolarized to +60 mV, and the current was recorded.
Current inhibition rate (%)=100×(current amplitude after administration−current amplitude before administration)/current amplitude before administration

[2] = test system: acetic acid writhing in mice; assay: mouse acetic acid writhing model (analgesic effect); assay type: in vivo, Kunming mice; details: intragastric 30 mg/kg; for Writhing inhibition rate (%): 40 min before i.p. 0.6% acetic acid, writhings counted over 15 min
From the text: 1. Experimental purposes: To determine the analgesic activity of Compound (4) hydrochloride and Compounds (1), (2), (3), (5) in a mouse acetic acid writhing model.
2. Experimental materials: Kunming mice (18-22 g), half male and half female, were provided by the Experimental Animal Center of the Academy of Military Medical Sciences.
The mice were weighed and labeled, 10 mice in each group (half male and half female), the mice were divided into 7 groups, including 5 experimental groups (using Compound (4) hydrochloride, Compound (1), (2), (3), (5), respectively), positive control group (using NMED-160) and negative control group (using normal saline). Among them, NMED-160 used in the positive control group was a selective small molecule N-type calcium ion channel blocker, which had entered the phase II clinical trial and could be synthesized by referring to document^[11], and the structural formula thereof is as follows: […]
The mice were intragastrically administered with drug (30 mg/kg). After 40 minutes, 0.4 mL of 0.6% (v/v) acetic acid was intraperitoneally injected. After 5 minutes, the number of mouse writhings in the subsequent 15 minutes was recorded. The inhibition rate of the drug on the acetic acid writhing in mice was calculated according to the following formula, and the analgesic effect of the drug was evaluated.
A represents the number of writhings in the negative control group;
B represents the number of writhings in the experimental groups or the positive control group.

[3] = Evaluation of the central nervous system distribution in rats; details: for Kp at 2 h: SD, rat
in vivo = details: SD, rat, iv
[4] = Rapid evaluation of pharmacokinetics in rats; assay type: in vivo, SD rats
Protocol: Compound (1) was dissolved in 25% (w/v) aqueous solution of hydroxypropyl-β-cyclodextrin;
Adult SD rats, 180-220 g in body weight, male, purchased from the Animal Center of the Academy of Military Medical Sciences, Animal Certificate SCXK-(Army)-2012-0004;
Six adult SD rats were randomly numbered, and divided into 2 groups to receive intravenous injection (i.v., 1.85 mg/kg) and oral administration (p.o., 11 mg/kg) of Compound (1), respectively; blood samples were collected at 0.1 mL before administration and 2 minutes, 5 minutes, 15 minutes, 30 minutes, 60 minutes, 2 hours, 4 hours, 7 hours and 24 hours after administration, placed in anticoagulation tubes, centrifuged for 15 minutes (3500 rpm) to separate plasma, and 0.05 mL plasma samples were accurately taken and frozen in a refrigerator at −30° C. for later tests.
To the 0.05 mL rat plasma sample, 0.3 mL of acetonitrile containing the internal standard substance megestrol (100 ng/mL) and 0.005 mL of blank acetonitrile were added, vortexed for 1 minute on a vortex mixer, and centrifuged for 10 minutes (14,000 g), about 0.15 mL of the supernatant was taken and placed into an injection vial, injected 5 μL to LC-MS/MS for detection and analysis by referring to the method of the above section 2. […] The results of 1 # to 3 # were averaged, the results of 4 # to 6 # were averaged, and the relationship curves of the average concentrations of Compound (1) in the rats of i.v. administration and in the rats of p.o. administration against time were obtained and shown in FIG. 2. The Winnolin pharmacokinetic software was used to analyze the measured data and calculate the main pharmacokinetic parameters, including the area under curve (AUC), clearance rate (CL), apparent distribution volume (V), terminal elimination half life (t1/2) and mean residence time (MRT) for the intravenous injection, as well as the area under curve (AUC), terminal elimination half life (t1/2), mean residence time (MRT), peak concentration (Cmax), time to peak (Tmax) and biological force (F) for the oral administration.

[5] = male, SD, rat, plasma, intravenous injection 1.85 mg/kg, n = 3
[6] = male, SD, rat, plasma, oral administration 11 mg/kg, n = 3

Compound: c1ccc(C2(c3ccccc3)CCN(Cc3cccs3)CC2)cc1 [Compound (5), 1-(2-methylthienyl)-4,4-diphenylpiperidine]
- Current inhibition rate (%) [1]: 45.3%
- Writhing inhibition rate (%) [2]: 46.87%

Compound: CN(C)c1ccc(CN2CCC(c3ccccc3)(c3ccccc3)CC2)cc1 [Compound (3), 1-(4-dimethylaminobenzyl)-4,4-diphenylpiperidine]
- Current inhibition rate (%) [1]: 42.3%
- melting point: 128 to 130 °C
- Writhing inhibition rate (%) [2]: 23.17%

Compound: COc1cc(CN2CCC(c3ccccc3)(c3ccccc3)CC2)cc(OC)c1OC (as salt: hydrochloride)
- melting point: 235 to 237 °C

Compound: COc1cc(CN2CCC(c3ccccc3)(c3ccccc3)CC2)cc(OC)c1OC.Cl [Compound (4) hydrochloride, 1-(3,4,5-trimethoxybenzyl)-4,4-diphenylpiperidine hydrochloride]
- Current inhibition rate (%) [1]: 54.1%
- Writhing inhibition rate (%) [2]: 39.68%

Compound: O=C(CCN1CCC(c2ccccc2)(c2ccccc2)CC1)c1ccc2[nH]c(=O)oc2c1 [Compound (1), 6-(3-(4,4-diphenylpiperidinyl)-propionyl)benzoxazolin-2-one]
- Current inhibition rate (%) [1]: 70.6%
- Kp at 2 h ([3]; brain/plasma, intravenous): 3 ± 0.71
- Kp at 2 h ([3]; in vivo): 3 to 4
- Kp at 2 h ([3]; spinal cord/plasma, intravenous): 3.7 ± 1.3
- Concentration, Rat brain tissue ([3]; rats, i.v. bolus then instillation, 2 hours after administration, n = 3): 808.3 ± 233.8 ng/g
- melting point: 236 °C (dec.)
- Writhing inhibition rate (%) [2]: 58.77%
- analgesic effect (in words) ([2]; acetic acid writhing): comparable to that of NMED-160
- concentration at 2 h (in vivo): 271 ng/mL and 998 ng/g
- effect of liver metabolism on the clearance in vivo ([4]; i.v. clearance compared with rat liver blood flow (3.3 L/h/kg)): about 70%
- V ([4]; intravenous injection 1.85 mg/kg, n = 3, 1.85 mg/kg): 12.39 L/kg and 12.39 ± 3.17 L/kg
- AUC [4, 5]: 750 ± 98.2 ng·h/mL
- MRT [4, 5]: 3.87 ± 0.18 h
- clearance [4, 5]: 39.7 mL/min/kg
- half-life [4, 5]: 300 ± 52.8 min
- AUC [4, 6]: 1670 ± 222 ng·h/mL
- Cmax [4, 6]: 188 ± 28.5 ng/mL
- MRT [4, 6]: 5.6 ± 0.46 h
- half-life [4, 6]: 324 ± 90 min
- Tmax ([4]; male, SD, rat, plasma, po, 11 mg/kg, oral administration 11 mg/kg, n = 3, read-out: Tmax): 1 to 2 h
- F ([4]; oral 11 mg/kg vs intravenous 1.85 mg/kg, n = 3): 44.7% and 44.7 ± 5.93%
- Tmax ([4]; oral administration 11 mg/kg, n = 3, 11 mg/kg): 1.33 ± 0.58 h

Compound: O=C(CN1CCC(c2ccccc2)(c2ccccc2)CC1)c1ccc2[nH]c(=O)oc2c1 [Compound (2), 6-(3-(4,4-diphenylpiperidinyl)-acetyl)benzoxazolin-2-one]
- Current inhibition rate (%) [1]: 65.6%
- Writhing inhibition rate (%) [2]: 54.66%

Compound: O=C(CC(c1ccccc1)c1ccccc1)N1CCN(C(c2ccccc2)c2ccccc2)CC1 [NMED-160, reference compound]
- Writhing inhibition rate (%) [2]: 51.75%
